{"source": "patent US20230392121A1", "about": "“HYDROGELS FOR CELL CULTURE” (KATHOLIEKE UNIVERSITEIT LEUVEN, priority 2020, published 2023)", "key": {"[1]": {"settings": "phase III; cited from earlier work"}, "HepMat co-cultures [2]": {"system": "HepMat co-cultures", "assay": "Co-treatment of HepMat co-cultures with OA & OCA or OA & ELN", "assay_type": "cell-based, human", "settings": "800 μM OA with 1 μM OCA or 30 μM ELN, 3 days", "experimental": "A similar effect was observed on proinflammatory parameters.\n(§1) Oleic acid (OA) exposure of HepMat-co-cultures and mono-cultures: Day 32 HepMat co-cultures and Day 32 HepMat HC3x HLC, HSC and Mφ mono-cultures were incubated with 800 μM of OA (Sigma-Aldrich) for 7 days (addition on day 0 and day 3). Day 32 HepMat co-cultures were also incubated with a combination 800 μM of OA and 1 μM Obeticholic acid (OCA) (Company) or 800 μM of OA and 30 μM Elafibranor (ELN) (Company) for 3 days (addition on day 0 only). Expression of inflammatory and fibrogenic genes was determined by RT-1PCR. Supernatants were collected for pro-collagen measurement by ELISA on day 3 and day 7. In addition, co-culture were assayed for presence of steatosis by BODIPY® staining on day 3 and day 7 as follows: Gels were transferred to Glass Bottom plates (cellvis) for live-cell imaging, following incubation with BODIPY® 493/503 for lipids (Thermo Fisher Scientific) and Hoechst (Sigma Aldrich). Sample was visualised and scanned on a laser scanning confocal microscope (LSM 880, Zeiss, Germany),\n(§2) The supernatant was assayed for human TNF-alpha, ILla1pha, and IL6 by ELISA (Biolegend, CA, USA), according to the manufacturer's instructions. Presence of pro-collagen type I was detected by Pro-collagen Type I C-peptide ELISA kit (Takara Bio Inc). Secreted level of TNF-alpha, IL1alpha, IL6 and pro-collagen 1 were normalised for the cell number."}, "iETV2-ECs [3]": {"system": "iETV2-ECs", "assay": "Oleic acid treatment of iETV2-ECs", "assay_type": "cell-based, human", "settings": "OA treatment", "experimental": "(§3) d32 HepMat co-cultures were also exposed to 0.8 mM OA for 3 days (1 dose) and 7 days (2 doses)."}, "[4]": {"system": "HC3x HLC, HSC and Mφ mono-cultures", "assay": "Oleic acid exposure of HepMat mono-cultures", "assay_type": "cell-based, human", "experimental": "as §3, §1\nThe supernatant was assayed for human TNF-alpha, ILla1pha, and IL6 by ELISA (Biolegend, CA, USA), according to the manufacturer's instructions. Presence of pro-collagen type I was detected by Pro-collagen Type I C-peptide ELISA kit (Takara Bio Inc). […]"}, "HepMat co-cultures [5]": {"system": "HepMat co-cultures", "assay": "Oleic acid exposure of HepMat co-cultures (BODIPY, RT-qPCR, ELISA)", "assay_type": "cell-based, human", "experimental": "as §3, §1, §2"}, "PSC-Mφs [6]": {"system": "PSC-Mφs", "assay": "TGFβ exposure of PSC-Mφ HepMat mono-cultures", "assay_type": "cell-based, human", "settings": "supernatants", "experimental": "(§4) It was investigated whether HepMat co-cultures could be used to model liver fibrosis/steatosis, by exposing cultures either to TGFβ or oleic acid (OA). d32 HepMat co-cultures were treated with 25 ng/ml of TGFβ for an additional 3 days (single administration) or 7 days (2 administrations). […] In addition, TGFβ induced a 7±0.4-fold higher level of pro-collagen and 17±3.4-fold higher level of IL6 on day 7 of treatment in HepMat co-culture supernatants. Pro-collagen levels were unchanged in HC3x-HLCs and PSC-Mφ mono-cultures and ±3-fold increase in PSC-HSCs following 3 and 7 days of treatment with TGFβ.\n(§5) TGFβ exposure of HepMat-co-cultures and mono-cultures: Day 32 HepMat co-cultures and dayy 32 HepMat HC3x HLC, HSC and Mφ mono-cultures were incubated with 25 ng/ml TGFβ for 7 days (addition on day 0 and day 3). Expression of inflammatory and fibrogenic genes was determined by RT-qPCR. Supernatants were collected for pro-collagen measurement by ELISA.\nas §2"}, "PSC-HSCs [7]": {"system": "PSC-HSCs", "assay": "TGFβ exposure of HepMat-PSC-HSC cultures (24 h)", "assay_type": "cell-based, human", "settings": "25 ng/mL TGFβ", "experimental": "Day 12 HSC expressed ACTA2, PDG1FRα, COL1A1, COL3A1, COL5A2 and LOXL2 but low levels of LRAT (important for Vitamin-A metabolism in quiescent HSCs) and the more recently identified non-fibrotic HSC marker genes, RGS5 and IGFBP5 (FIGS. 3B and 3E). Accutase-harvested d12 PSC-HSCs were embedded at 3×10^5 cells/10 μl HepMat hydrogel, and maintained for 32 days in HSC medium. HSCs survived for 32 days in the HepMat hydrogel (Calcein-AM staining; FIG. 3B). […] Consistently, HSCs cultured in HepMat hydrogels stored retinol, as shown by BODIPY® staining and presence of typical blue autofluorescence elicited by UV light, even when cultured with low concentrations of palmitic acid (FIG. 3B). […] Thus, PSC-HSCs can be maintained for at least 32 days in the HepMat hydrogels. Moreover, culture of HSCs in these hydrogels may at least in part induce a less fibrotic HSC phenotype while still allowing TGFβ-mediated activation.\nTGFβ exposure of HepMat-PSC-HSC cultures: Day 32 HepMat-PSC-HSC mono-cultures hydrogels were exposed to 25 ng/ml of TGFβ (Peprotech) on day 32. Expression of inflammatory and fibrogenic genes was determined by RT-1PCR. Supernatants were collected for pro-collagen measurement by ELISA."}, "HC3x-HLCs": {"system": "HC3x-HLCs", "assay": "TGFβ exposure of HC3x-HLC HepMat mono-cultures", "assay_type": "cell-based, human", "experimental": "as §4, §5, §2"}, "HepMat co-cultures [8]": {"system": "HepMat co-cultures", "assay": "TGFβ exposure of HepMat co-cultures (RT-qPCR, ELISA)", "assay_type": "cell-based, human", "experimental": "as §4, §5, §2"}, "PSC-HSCs [9]": {"system": "PSC-HSCs", "assay": "TGFβ exposure of PSC-HSC HepMat mono-cultures (3 and 7 days)", "assay_type": "cell-based, human", "experimental": "as §4, §5, §2"}, "iETV2-ECs [10]": {"system": "iETV2-ECs", "assay_type": "cell-based, human"}, "PSC-Mφs [11]": {"system": "PSC-Mφs", "assay": "LPS exposure of HepMat-PSC-Mφ cultures", "assay_type": "cell-based, human", "settings": "100 ng/ml LPS", "experimental": "Mφs were generated from PSCs, using a protocol adapted from van Wilgenburg et al. (2013) PLoS One. 8, e71098 (FIG. 3C). […] Thus, PSC-Mφs could also be functionally maintained for at least 32 days in HepMat hydrogels.\nLPS exposure of HepMat-PSC-MEs cultures: Day 32 HepMat-PSC-M[…]s mono-cultures were exposed to 100 ng/ml of LPS (Sigma-Aldrich). Expression of inflammatory genes was determined by RT-qPCR. Supernatants were collected for inflammatory cytokine measurement by ELISA."}, "[12]": {"settings": "25 ng/ml TGFβ, d32 HepMat co-cultures"}}, "note": "Read-outs that look alike come from different tables or passages of the source."}
{"compound": "CSc1ccc(C(=O)/C=C/c2cc(C)c(OC(C)(C)C(=O)O)c(C)c2)cc1", "note": "[ELN, elafibranor]", "values": [{"measurement": "improvement of liver fibrosis compared to placebo", "setting": "[1]", "result": "not significantly improve"}, {"measurement": "COL1A1 transcript levels", "setting": "HepMat co-cultures [2]", "result": "inhibited"}, {"measurement": "IL6 transcripts", "setting": "HepMat co-cultures [2]", "result": "significantly reduced"}, {"measurement": "bodipy staining", "setting": "HepMat co-cultures [2]", "result": "significant reduction"}, {"measurement": "pro-collagen secretion in culture supernatants", "setting": "HepMat co-cultures [2]", "result": "no effect"}, {"measurement": "production of secreted IL6", "setting": "HepMat co-cultures [2]", "result": "did not inhibit"}]}
{"compound": "CCCCCCCC/C=C\\CCCCCCCC(=O)O", "note": "[OA, oleic acid]", "values": [{"measurement": "survival of iETV2-ECs", "setting": "iETV2-ECs [3]", "result": "did not survive"}, {"measurement": "pro-collagen or inflammatory cytokines in supernatants", "setting": "[4]; any of the mono-cultures", "result": "no significant changes"}, {"measurement": "induction in COL1A1 and COL3A1 transcripts", "setting": "[4]; mono-cultures, 3 days after OA addition", "result": "~9", "unit": "fold"}, {"measurement": "IL6 expression", "setting": "HepMat co-cultures [5]; 0.8 mM OA, d3", "result": 1200, "unit": "fold"}, {"measurement": "IL6 expression", "setting": "HepMat co-cultures [5]; 0.8 mM OA, d7", "result": 1000, "unit": "fold"}, {"measurement": "lipid accumulation, BODIPY staining", "setting": "HepMat co-cultures [5]; 0.8 mM OA, day 3, persisted until day 7", "result": "significant lipid accumulation"}, {"measurement": "induction of COL1A1, COL1A3, COL5A2 as well as LOXL2", "setting": "HepMat co-cultures [5]; 0.8 mM OA, day 7", "result": "even greater induction"}, {"measurement": "increase in pro-collagen in supernatants", "setting": "HepMat co-cultures [5]; 3 day after administration of OA", "result": "5±0.5", "unit": "fold"}, {"measurement": "increase in pro-collagen in supernatants", "setting": "HepMat co-cultures [5]; 7 day after administration of OA", "result": "12±1.5", "unit": "fold"}, {"measurement": "increase in IL6 in supernatants", "setting": "HepMat co-cultures [5]; day 7", "result": "90±5", "unit": "fold"}]}
{"compound": "TGFβ", "values": [{"measurement": "Pro-collagen levels", "setting": "PSC-Mφs [6]", "result": "unchanged"}, {"measurement": "secreted levels of pro-collagen", "setting": "PSC-HSCs [7]; ELISA", "result": "significantly higher levels"}, {"measurement": "LRAT transcript levels", "setting": "PSC-HSCs [7]; d32 HepMat HSCs", "result": "significant decrease"}, {"measurement": "expression of COL1A1", "setting": "PSC-HSCs [7]; d32 HepMat HSCs", "result": "significant increase"}, {"measurement": "induction of COL1A1 transcripts", "setting": "HC3x-HLCs; 3 days treatment", "result": "9±1.6", "unit": "fold"}, {"measurement": "induction of COL1A1 transcripts", "setting": "HC3x-HLCs; 7 days treatment", "result": "5±0.7", "unit": "fold"}, {"measurement": "Pro-collagen levels", "setting": "HC3x-HLCs; TGFβ, supernatants", "result": "unchanged"}, {"measurement": "increase in transcripts for COL1A1", "setting": "HepMat co-cultures [8]; [12]", "result": "17±3.5", "unit": "fold"}, {"measurement": "increase in transcripts for COL3A1", "setting": "HepMat co-cultures [8]; [12]", "result": "13±3.4", "unit": "fold"}, {"measurement": "increase in transcripts for COL5A2 or LOXL2", "setting": "HepMat co-cultures [8]; [12]", "result": "but not COL5A2 or LOXL2"}, {"measurement": "induction of IL1α transcripts", "setting": "HepMat co-cultures [8]; TGFβ exposure for 7 days", "result": "7±0.49", "unit": "fold"}, {"measurement": "induction of IL6 transcripts", "setting": "HepMat co-cultures [8]; TGFβ exposure for 7 days", "result": "13±4.3", "unit": "fold"}, {"measurement": "higher level of IL6 in supernatants", "setting": "HepMat co-cultures [8]; day 7 of treatment, ELISA", "result": "17±3.4", "unit": "fold"}, {"measurement": "higher level of pro-collagen in supernatants", "setting": "HepMat co-cultures [8]; day 7 of treatment, ELISA", "result": "7±0.4", "unit": "fold"}, {"measurement": "increase in pro-collagen levels", "setting": "PSC-HSCs [9]; 3 and 7 days of treatment with TGFβ", "result": "~3", "unit": "fold"}, {"measurement": "induction of COL1A1 and COL3A1 transcripts", "setting": "PSC-HSCs [9]; d3", "result": "4±1.1", "unit": "fold"}, {"measurement": "survival of iETV2-ECs", "setting": "iETV2-ECs [10]", "result": "did not survive"}]}
{"compound": "lipopolysaccharide [LPS]", "values": [{"measurement": "secretion of TNFα, IL1α and IL6", "setting": "PSC-Mφs [11]; ELISA, significant for IL6", "result": "increased secretion of all three cytokines"}, {"measurement": "expression of TNFα, IL1α and IL6", "setting": "PSC-Mφs [11]; additional 48 hours, RT-qPCR", "result": "significantly induced"}]}
